Laboratory results: ChEMBL document CHEMBL5370645, “Discovery, Characterization, and Bioactivity of the Achromonodins: Lasso Peptides Encoded by Achromobacter” (J Nat Prod, 2023)
Activity calls are given as the source filed them. No cut-off for these calls is given here. Positions of bridges follow the written chain, without caps; N, C: chain ends. Residues, ends and D or L forms follow the SMILES beside them.

Test system: Escherichia coli
Test: Inhibition of Escherichia coli RNA polymerase assessed as reduction in transcriptional capacity by abortive transcription initiation assay

For `CC[C@H](C)[C@@H]1NC(=O)[C@H](CO)NC(=O)CNC(=O)[C@H](CC(=O)O)NC(=O)CNC(=O)CNC(=O)CC[C@@H](C(=O)N[C@@H](Cc2ccc(O)cc2)C(=O)N[C@@H](Cc2ccccc2)C(=O)N[C@@H](CC(N)=O)C(=O)N[C@@H](CCCNC(=N)N)C(=O)N2CCC[C@H]2C(=O)N[C@@H](CCSC)C(=O)N[C@@H](Cc2c[nH]cn2)C(=O)N[C@H](C(=O)N[C@@H](Cc2c[nH]cn2)C(=O)N[C@@H](CC(=O)O)C(=O)N[C@@H](Cc2c[nH]c3ccccc23)C(=O)N[C@@H](CCC(N)=O)C(=O)N[C@H](C(=O)N[C@@H](CCSC)C(=O)N[C@@H](CC(=O)O)C(=O)N[C@@H](CO)C(=O)NCC(=O)N[C@@H](Cc2ccc(O)cc2)C(=O)N[C@@H](Cc2ccc(O)cc2)C(=O)NCC(=O)O)[C@@H](C)CC)[C@@H](C)CC)NC(=O)[C@H](C)NC1=O` (GGDGSIAEYFNRPMHIHDWQIMDSGYYG-OH; lactam N-8), the inhibition was “Active”.
